Experimental data reported in publication PMC11530827, “Characterization of a cytochrome P450 that catalyzes the O-demethylation of lignin-derived benzoates” (The Journal of Biological Chemistry, 2024).

Key:
[1] = target: T1, PbdA R84M (Rhodococcus jostii, UniProt Q0SCI3, R82M); assay: Substrate binding to PbdA R84M variant by spectral titration; set-up: species or system Rhodococcus jostii RHA1
T1 construct: hexaHis (N, cleaved yes); made in house; host or cells: PbdA variant: E. coli BL-21 λ (DE3); PbdB: Rhodococcus jostii RHA1
Method: (§1) UV-visible spectroscopy was conducted with a Cary 60 spectrophotometer equipped with a thermostatted cuvette holder at 25 °C. Scans of purified proteins diluted in 20 mM Mops, I = 0.1 M, pH 7.2 were taken between 250 and 700 nm. Heme concentration was calculated as described previously ([35]). Carbon monoxide binding was determined by reduction of PbdA diluted in 20 mM Mops, I = 0.1 M, pH 7.2 as above by a few grains of […]. CO was bubbled into the reduced enzyme for approximately 60 s at a rate of one bubble per second. Dissociation constants (Kd) were determined by titration of ligands diluted into enzyme buffer from 1 M stocks prepared in dimethyl sulfoxide into PbdA diluted in 20 mM Mops, I = 0.1 M, pH 7.2. Spectra take upon addition of substrate were subtracted from the spectrum of the enzyme, and peak-to-trough distance was plotted by ligand concentration. Kd values were determined by fitting a hyperbolic equation to the data as described previously ([23], [36]). The proportion of high-spin heme iron was determined using the approximate peak-to-trough extinction coefficient (ε ≈ 100 mM^−1 cm^−1) ([36]).

[2] = target: T2, PbdA S237A (Rhodococcus jostii, UniProt Q0SCI3, S235A); assay: Activity and coupling assay of PbdA S237A variant with PbdB; assay type: biochemical, Rhodococcus jostii RHA1
T2 construct: hexaHis (N, cleaved yes); made in house; host or cells: PbdA variant: E. coli BL-21 λ (DE3); PbdB: Rhodococcus jostii RHA1
Method: (§2) For activity measurements 0.25 to 1 μM of PbdA and PbdB were combined in a 200 μl cuvette in 20 mM Mops, pH 7.2 with substrate diluted in the same buffer. NADH was added to 350 μM to initiate the reaction. For HPLC analysis, enzymatic reactions were acidified by adding acetic acid to 10% final concentration, centrifuged (16,000×g for 10 min), and filtered through a 0.2 μm polytetrafluoroethylene membrane. Samples were run over a Luna 5 μm C18(2) 100 Å 150 × 3 mm column (Phenomenex) at 0.7 ml min^−1 by a Waters 2695 separation HPLC module. Samples were eluted with a 16.8 ml linear gradient from 1% methanol plus 0.1% formic acid in water to 100% methanol plus 0.1% formic acid and monitored at 280 nm with a Waters 2996 photodiode array detector. Concentrations were determined by interpolation on a standard curve of 0 to 1 mM of authentic standard. NADH concentration was measured by absorbance at 340 nm, ε = 6.22 mM^-1 cm^-1. Coupling was calculated from the ratio of rate of aromatic turnover, as determined by HPLC, and the rate of NADH oxidation, determined spectroscopically. Buffer ionic strength was adjusted by addition of NaCl, as appropriate. Apparent steady-state kinetic parameters were calculated by fitting Michaelis–Menten equations to initial velocity of reactions at various concentrations of aromatic substrate (LEONORA).
(§3) ^aExperiments were performed using air-saturated MOPS (I = 0.1 M), pH 7.2, at 25 °C. The rate of aromatic substrate turnover was based on the appearance of O-demethylated product. Standard deviation is shown in parentheses.

[3] = target: T3, PbdA S87A (Rhodococcus jostii, UniProt Q0SCI3, S85A); assay: Activity and coupling assay of PbdA S87A variant with PbdB; assay type: biochemical, Rhodococcus jostii RHA1
T3 construct: hexaHis (N, cleaved yes); made in house; host or cells: PbdA variant: E. coli BL-21 λ (DE3); PbdB: Rhodococcus jostii RHA1
Method: as §2, §3

[4] = target: T4, PbdA S87A/S237A (Rhodococcus jostii, UniProt Q0SCI3, S235A/S85A); assay: Substrate binding to PbdA S87A/S237A variant by spectral titration; set-up: species or system Rhodococcus jostii RHA1
T4 construct: hexaHis (N, cleaved yes); made in house; host or cells: PbdA variant: E. coli BL-21 λ (DE3); PbdB: Rhodococcus jostii RHA1
Method: as §1

[5] = target: T5, PbdA (Rhodococcus jostii, UniProt Q0SCI3)
T5 sequence (Q0SCI3 1-400): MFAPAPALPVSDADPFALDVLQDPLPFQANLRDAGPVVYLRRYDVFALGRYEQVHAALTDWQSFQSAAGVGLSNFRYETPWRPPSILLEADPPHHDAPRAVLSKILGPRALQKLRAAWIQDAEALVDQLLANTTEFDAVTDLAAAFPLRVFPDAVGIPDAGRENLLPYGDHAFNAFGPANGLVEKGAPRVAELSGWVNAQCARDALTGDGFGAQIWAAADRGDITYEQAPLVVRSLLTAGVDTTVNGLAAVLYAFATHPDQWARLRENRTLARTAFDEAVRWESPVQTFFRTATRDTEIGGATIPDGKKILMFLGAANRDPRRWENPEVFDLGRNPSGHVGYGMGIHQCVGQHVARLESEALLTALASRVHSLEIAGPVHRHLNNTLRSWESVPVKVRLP
Method: We then measured coupling under optimum conditions for other substrates. […] Finally, we measured the apparent steady-state kinetic parameters of the PbdA reaction under conditions of maximal coupling (Fig. S4).
as §2

[6] = target: T3, PbdA S87A; assay: Substrate binding to PbdA S87A variant by spectral titration; set-up: species or system Rhodococcus jostii RHA1
Method: as §1

[7] = target: T5, PbdA; assay: Substrate binding to PbdA (WT) by type I spectral shift titration; set-up: hexaHis (N, cleaved yes); made in house; host or cells: PbdA: E. coli BL-21 λ (DE3); PbdB: Rhodococcus jostii RHA1; settings: WT PbdA
Method: The affinity of PbdA for various LDACs was measured by the type I spectral shift upon titration of aromatic compound (Fig. 2). This shift occurs as the compound displaces a water coordinated to the heme iron, initiating a spin state transition in the latter from a low spin, hexacoordinate, to a high spin, pentacoordinate form.
Figure 2 Substrate binding of PbdA. A, difference spectra of PbdA titrated with 1 to 50 μM p-MBA from the substrate-free enzyme. Darker colors indicate higher concentration of p-MBA. Spectra were collected after each addition of substrate to 1 μM enzyme in 20 mM Mops, I = 0.1 M, pH 7.2. B, binding isotherm of PbdA and p-MBA. The fitted curve represents a simple hyperbola. p-MBA, para-methoxybenzoate.
as §1

[8] = air-saturated MOPS (I = 0.1 M), pH 7.2, 25 °C
[9] = appearance of O-demethylated product

T3 sequence (Q0SCI3 entry or part of it S85A): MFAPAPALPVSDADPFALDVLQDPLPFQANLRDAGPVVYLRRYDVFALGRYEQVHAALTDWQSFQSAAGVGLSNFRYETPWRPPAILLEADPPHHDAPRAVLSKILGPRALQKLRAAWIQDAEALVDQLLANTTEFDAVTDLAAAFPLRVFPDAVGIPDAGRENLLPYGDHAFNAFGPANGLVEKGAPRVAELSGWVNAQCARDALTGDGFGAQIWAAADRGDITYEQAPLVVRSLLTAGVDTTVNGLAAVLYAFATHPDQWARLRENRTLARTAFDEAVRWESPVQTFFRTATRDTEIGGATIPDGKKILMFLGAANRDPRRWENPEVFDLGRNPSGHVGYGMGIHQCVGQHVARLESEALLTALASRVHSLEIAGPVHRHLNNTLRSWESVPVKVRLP
T2 sequence (Q0SCI3 entry or part of it S235A): as the sequence (Q0SCI3 entry or part of it S85A) above, with A85S, S235A counted along it
T4 sequence (Q0SCI3 entry or part of it S85A/S235A): as the sequence (Q0SCI3 entry or part of it S85A) above, with S235A counted along it
T1 sequence (Q0SCI3 entry or part of it R82M): as the sequence (Q0SCI3 entry or part of it S85A) above, with R82M, A85S counted along it

In the case of `COc1ccc(C(=O)O)cc1` [p-MBA, p-methoxybenzoate], the Kd [1] is reported as 36 µM, the “ΔG°” value ([1]; R84M variant, binding energy) is reported as -25.5 kJ/mol and the “ΔΔG°” value ([1]; R84M variant, comparison of ΔG° of variant to wild type) is reported as 5.44 kJ/mol. For the same molecule, the Coupling [2] was 80 (2) %, the Specific activity ([2]; O-demethylation) was 2600 (400) U μg P450^-1 and the NADH depletion rate [2, 8] was 3600 (600) U mg P450^-1. For the same molecule, the “Rate of Aromatic turnover” value [2, 9] was 2600 (400) U mg P450^-1, the Coupling [3] was 45 (7) % and the Specific activity ([3]; O-demethylation) was 800 (200) U μg P450^-1. The NADH depletion rate [3, 8] was 1700 (200) U mg P450^-1, the “Rate of Aromatic turnover” value [3, 9] was 800 (200) U mg P450^-1 and the Kd [4] was 70 µM. For the same molecule, the “ΔG°” value ([4]; S87A/S237A variant, binding energy) was -23.8 kJ/mol, the “ΔΔG°” value ([4]; S87A/S237A variant, comparison of ΔG° of variant to wild type) was 7.11 kJ/mol and the “kcat (apparent)” value ([5]; WT PbdA with PbdB, air-saturated Mops (I = 0.1 M), pH 7.2, 25 °C, SD in parentheses) was 0.37 (0.02) s^−1. For the same molecule, the Specific activity ([5]; WT PbdA, O-demethylation, SD in brackets) was 2700 (100) U μg P450^-1, the NADH depletion rate ([5]; WT PbdAB, air-saturated MOPS (I = 0.1 M), pH 7.2, 25 °C, SD in parentheses) was 2700 (100) U mg P450^-1 and the “Rate of Aromatic turnover” value ([5]; WT PbdAB, appearance of O-demethylated product (disappearance of p-EB), SD in parentheses) was 2700 (200) U mg P450^-1. For the same molecule, the Coupling ([5]; WT PbdAB, ratio of aromatic turnover rate to NADH oxidation rate) was 100 (3) %, the Km ([5]; read-out: KM (apparent), WT PbdA with PbdB, air-saturated Mops (I = 0.1 M), pH 7.2, 25 °C, SD in parentheses) was 18 µM and the Kd [6] was 50 µM. For the same molecule, the “ΔG°” value ([6]; S87A variant, binding energy) was -24.7 kJ/mol, the “ΔΔG°” value ([6]; S87A variant, comparison of ΔG° of variant to wild type) was 6.28 kJ/mol and the Kd ([7]; 20 mM Mops, I = 0.1 M, pH 7.2, 25 °C, SD in parentheses, read-out: Kd) was 3.8 µM. The “%High-spin (percent of heme iron in high-spin state)” value ([7]; on substrate binding) was >99%.
